Source: patent US5908868A, “Retinol derivatives useful for enhancing immune response” (priority 1995, dated 1999)
Entries after “also recorded” stand apart in the source; their conditions may differ.

Key:
[1] = tested on: lymphoblastoid cells (LCL); details: serum-free medium; cited from earlier work
lymph node T cells = test: Proliferation of anti-CD3 activated lymph node T cells; type: cell-based, BALB/c mouse
Description: Growth curves of lymph node T cells depleted of antigen-presenting cells (FIG. 17A) with and without 10^-6 M retinol at 2×10^5 and 5×10^4 cells/well. (FIG. 17B) Dose-responses elicited by different retinoids in cultures of lymph node T cells depleted of antigen-presenting cells. Also shown are the growth curves of CD4^+ (FIG. 17C) and CD8^+ T lymphocytes (FIG. 17D) in the presence of either retinol, 14HRR, human serum or in their absence.
T lymphocytes, purified as described, 5×10^4 well, were activated with immobilized anti-CD3 antibody in ITLB medium. The indicated amounts of retinoids or human serum were added at initiation of cultures. […] 14HRR was added every 12 hours. DNA synthesis was measured by a 4 hour pulse with tritiated thymidine. SDs were ≤17%.
Mature T cells were obtained from pooled intestinal, axillary, inguinal and submandibular lymph nodes of 4 to 10-week-old BALB/c mice. To fractionate cells into CD4 and CD8 subsets and at the same time remove APC, a combination of adherence and complement lysis was used as follows:
Cells were cultured in serum-free medium, referred to as ITLB, containing RPMI 1640 supplemented with 8×10^-7 M insulin (5 μg/ml), 7×10^-8 M transferrin (5 μg/ml), 2×10^-6 M linoleic acid, 2×10^-6 M delipidated BSA (0.12 mg/ml), 2 mM L-glutamine, 1 mM sodium pyruvate and antibiotics. They were seeded into 96-well flat-bottom plates at varying cellular densities in a final volume of 100 μl. In control experiments, cells were cultured in medium containing 10% FCS or 3% human serum and 5×10^-5 M 2 ME. T cells and thymocytes were activated with immobilized, purified anti-mab CD3e or by the addition of Con A in the presence or absence of different concentrations of retinoids. Unless indicated otherwise, retinoids were replenished every 12 hours to maintain a reasonably constant concentration of these labile compounds in culture. The optimal concentration for stimulation of T cells was determined for each batch of anti-CD3 mAb and Con A. The optimal range of Con A was particularly narrow in serum-free medium (0.5-0.2 μg/ml) and varied with the cell density used. […] Cultures were carried out in duplicate. Plates were incubated at 37° C. in a humidified 5% CO2 atmosphere. Cellular proliferation was determined by [^3 H] thymidine uptake (0.5 uCi/well; New England Nuclear, Boston, Mass.) after the incubation times indicated for each experiment with a 4 hour labeling pulse. Cells were harvested onto glass filter and [^3 H]TdR incorporation was determined by liquid scintillation counting. The data presented are the means of duplicate or six replicate cultures. The restriction to duplicate measurements was necessary to conserve scarce 14HRR. They were within 20% of each other. Each experiment was repeated at least twice.

T cells = test: T cell activation/proliferation; type: cell-based, murine; details: with mitogen/anti-CD3
Description: They were seeded into 96-well flat-bottom plates at varying cellular densities in a final volume of 100 μl. In control experiments, cells were cultured in medium containing 10% FCS or 3% human serum and 5×10^-5 M 2 ME. […] Cultures were carried out in duplicate. Plates were incubated at 37° C. in a humidified 5% CO2 atmosphere. Cellular proliferation was determined by [^3 H] thymidine uptake (0.5 uCi/well; New England Nuclear, Boston, Mass.) after the incubation times indicated for each experiment with a 4 hour labeling pulse. Cells were harvested onto glass filter and [^3 H]TdR incorporation was determined by liquid scintillation counting. The data presented are the means of duplicate or six replicate cultures. The restriction to duplicate measurements was necessary to conserve scarce 14HRR. […] Each experiment was repeated at least twice.

lymphoblastoid 5/2 cells = test: Conversion of 13,14DHR to 14HRR by lymphoblastoid cells; type: in vitro ADME, human; details: 10^-6 M, 1 and 2 hours, ITLB
Description: FIGS. 25A through 25D. 13,14DHR can be converted to 14HRR by lymphoblastoid cells. 200,000 5/2 cells/ml were incubated with or without 10^-6 M 13,14DHR added in serum-free ITLB medium. After 1 and 2 hours, cells pellets corresponding to 10 ml of culture were delipidated and the corresponding lipid fractions separated on an analytical C18 reversed-phase column according to FIG. 20. Peaks were identified according to their retention times and their UV absorption patterns.
Lymphoblastoid 5/2 cells devoid of retinol were cultured in the presence or absence of 10^-6 M 13,14DHR for 1 and 2 hours in ITLB medium. The retinoids extracted from the cell pellets were separated by HPLC according to FIG. 20. […] There was no 14HRR measurable in control cultures.

5/2 cells = test: Growth (DNA synthesis, [3H]thymidine) of lymphoblastoid 5/2 cells in serum-free medium; type: cell-based, human; details: ITLB medium without retinol
Description: Washed 5/2 cells (5,000/well) were incubated for 72 hours in HB101 medium with the indicated amounts of retinoids. DNA synthesis was measured by [^3 H] thymidine uptake. The measurements were done in triplicate. The SDs were <15%.
In FIGS. 4B to 4D, 5/2 cells were washed twice and seeded at a concentration of 150,000 cells/ml in HB 101 medium. Triplicate samples of 100 μl of cell suspension were removed daily and pulsed for 6 hours with [^3 H] thymidine. Means are shown. The SDs were never >20%.
P3 was purified as described in the Experimental Details section. 5/2 cells (5,000/well) were incubated for 72 hours in HB101 medium and refed with the indicated amount of retinoid daily. DNA synthesis was measured by [^3 H]-thymidine uptake. P3 is bioactive down to a concentration of 10-^8 M (FIG. 8). […] This is due either to chemical instability or to a more rapid metabolic degradation of P3 by the cells.
The assay was done in 96-well microtiter plates in a final volume of 200 ul/well. The cells were cultured for 72 hours and cell growth determined by [^3 H] thymidine (0.8 μCi/well)labeling for the last 16 hours. Retinoids were added at the indicated concentrations at the initiation of culture and every 24 hours thereafter.
The human EBV-transformed B-cell line 5/2 was established from the peripheral blood of a healthy donor. The cell line was grown in RPMI 1640 supplemented with 8% fetal calf serum, L-glutamine (2 mM), and antibiotics. The cell line was tested regularly for mycoplasma infections and was consistently negative.
The assay system is a modification of the assay developed by Blazar et al. (12). […] Assays were done in 96 well microtiter plates in a final volume of 200 μl/well or in 25 cm^2 tissue culture flasks. The cells in the microtiter plates were cultured for 72 hours and cell growth was determined by labeling for the last 16 hours with 0.8 μCi/well of [^3 H]thymidine (sp. act. 6.7 Ci/mmol). Growth in the culture flasks was determined in three aliquots of 100 μl taken at 24 hours intervals and cultured in the presence of 0.8 μCi of [^3 H]thymidine for an additional 6 hour period. To determine the viable cell number, nine aliquots per time point were differentially counted in a Neubauer chamber in the presence of trypan blue.
5/2 cells were grown in the absence of retinol in a medium containing the basic RPMI 1640 amino acid/salt mixture, insulin (5 μg/ml), transferrin (5 μg/ml), albumin (0.1%) and linoleic acid (10^-6 M) (ITLB). […] The dose-response curve shown in FIG. 26 indicates an effective concentration of 10^-7 M.

| conversion to 14HRR (lymphoblastoid 5/2 cells) | Structure (SMILES) | support of growth of LCL [1] | stimulatory activity at 10^-5 M (lymph node T cells; 10^-5 M) | stimulation of lymph node T cells (lymph node T cells; anti-CD3) | substitution for retinol in T cell activation (T cells) | substitution for retinol in T cell activation (T cells; listed as retinoic acid) | substitution for retinol in T cell activation (T cells; listed as 13,14 DHR) | restoration of capacity to proliferate (5/2 cells) |
| --- | --- | --- | --- | --- | --- | --- | --- | --- |
|  | CC1=C(/C=C/C(C)=C/C=C/C(C)=C/C(=O)O)C(C)(C)CCC1 [all-trans retinoic acid] | not | very modest stimulatory activity | nearly inert | not | cannot be satisfied; also recorded: neither respond to externally provided retinoic acid |  |  |
| produced 14HRR | CC(C=CC1=C(C)CCCC1(C)C)=CC=CC(C)(O)C(O)CO (stereo not drawn) [13,14DHR, 13,14-dihydroxy-retinol] |  |  |  | can effectively substitute for retinol |  | capable of being used in lieu of retinol | proliferation was restored as well |
